Target: HIF PHD2 (Homo sapiens, UniProt Q9GZT9)
Assay: PHD2 inhibition assay (TR-FRET, VCB-Eu detection of hydroxylated P564-HIF1α peptide)
Type: biochemical
Settings: 2 nM PHD2, 100 nM P564-HIF1α peptide, 0.25 μM 2-oxoglutarate, 100 μM FeCl2, 2 mM ascorbic acid, pH 6
Description: Inhibition of HIF PHD2 activity was quantified utilizing the TR-FRET technology. HIF PHD2 catalyzes a hydroxyl modification on the proline residue of the P564-HIF1α peptide substrate (Biotin-[…] (SEQ ID NO: 7)) resulting in recognition and binding of the europylated Von Hippel-Lindau protein (pVHL), elongin B and elongin C heterotrimeric (VCB-Eu) complex.
The PHD2 inhibition assay was executed by addition of freshly dissolved FeCl2 to 178.57 μM (100 μM final concentration) in PHD2 Reaction Buffer containing 30 mM MES, pH 6, 10 mM NaCl, 0.25% Brij-35, 0.01% BSA, and 1% DMSO. 28 μL of the iron solution and 2 μL of inhibitor compounds serially diluted in 100% DMSO (5% DMSO final) were added to black polypropylene 96-well microtiter plates. To that, 10 μL of 10 nM PHD2 (2 nM final) was added to all wells of the plate except for the 8 wells of column 12 (LO control), and allowed to incubate at room temperature on the shaker for one hour. Column 6 was the HI control containing PHD2 enzyme and 5% DMSO vehicle, but no inhibitor compound. To initiate the PHD2 enzymatic reaction, 10 μL of a solution containing 500 nM P564-HIF1α peptide (100 nM final), 10 mM ascorbic acid (2 mM final), and 1.25 μM 2-oxoglutarate (α-ketoglutarate; 0.25 μM final) in PHD2 Reaction Buffer was added to all wells of the plate and allowed to incubate on the shaker at room temperature for one hour.
The reaction was terminated by addition of 25 μL TR-FRET Buffer (50 mM TRIS-HCl, pH 9, 100 mM NaCl, 0.05% BSA, and 0.5% Tween-20) containing 150 mM succinate (product inhibitor; 50 mM final), 75 nM streptavidin-APC (25 nM final), and 7.5 nM VCB-Eu (2.5 nM final). The TR-FRET detection reagents were placed on a shaker for 1 hour to reach binding equilibrium before reading on the Discovery platform (PerkinElmer). Europium is excited at 315 nm and phosphoresces at 615 nm with a large Stoke's shift. APC, in turn, emits at 655 nm upon excitation at 615 nm. The TR-FRET signal is measured as the ratio of the APC 655 nm signal divided by the internal europium reference 615 nm emission signal.
The POC (percentage of control) was determined by comparing the signal from hydroxylated peptide substrate in the enzyme reaction containing inhibitor compound with that from PHD2 enzyme with DMSO vehicle alone (HI control), and no enzyme (LO control). POC was calculated using the formula: % control (POC)=(cpd−average LO)/(average HI−average LO)*100. Data (consisting of POC and inhibitor concentration in μM) was fitted to a 4-parameter equation (y=A+((B−A)/(1+((x/C)^D))), where A is the minimum y (POC) value, B is the maximum y (POC), C is the x (cpd concentration) at the point of inflection and D is the slope factor) using a Levenburg-Marquardt non-linear regression algorithm.

Sequence of HIF PHD2 (Q9GZT9 whole entry): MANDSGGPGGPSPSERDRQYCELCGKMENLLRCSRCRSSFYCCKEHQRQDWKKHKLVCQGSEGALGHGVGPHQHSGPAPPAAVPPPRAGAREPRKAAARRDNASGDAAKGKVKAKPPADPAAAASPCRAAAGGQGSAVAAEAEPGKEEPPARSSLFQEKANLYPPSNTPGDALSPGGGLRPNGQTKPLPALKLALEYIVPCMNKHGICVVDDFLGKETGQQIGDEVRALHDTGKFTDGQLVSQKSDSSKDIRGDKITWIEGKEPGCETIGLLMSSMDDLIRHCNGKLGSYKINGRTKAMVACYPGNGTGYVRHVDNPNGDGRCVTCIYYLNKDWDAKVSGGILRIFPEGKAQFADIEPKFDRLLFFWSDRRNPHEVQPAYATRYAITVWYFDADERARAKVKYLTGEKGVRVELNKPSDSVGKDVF

SMILES: Cn1c(=O)c(C(=O)NCC(=O)O)c(O)c2cnc(-c3ccnc4ccccc34)nc21 [Example 45, 2-(5-hydroxy-8-methyl-7-oxo-2-(quinolin-4-yl)-7,8-dihydropyrido[2,3-d]pyrimidine-6-carboxamido)acetic acid]
- IC50: 2 nM

SMILES: CSc1ncc2c(O)c(C(=O)NCC(=O)O)c(=O)n(C)c2n1 [Example 10, 2-(5-hydroxy-8-methyl-2-(methylthio)-7-oxo-7,8-dihydropyrido[2,3-d]pyrimidine-6-carboxamido)acetic acid]
- IC50: 25 nM

SMILES: Cn1c(=O)c(C(=O)NCC(=O)O)c(O)c2cnc(-c3ccc(F)cc3)nc21 [Example 27, 2-(2-(4-fluorophenyl)-5-hydroxy-8-methyl-7-oxo-7,8-dihydropyrido[2,3-d]pyrimidine-6-carboxamido)acetic acid]
- IC50: 2.3 nM

SMILES: Cn1c(=O)c(C(=O)NCC(=O)O)c(O)c2cnc(-c3cccc(F)c3)nc21 [Example 22, 2-(2-(3-fluorophenyl)-5-hydroxy-8-methyl-7-oxo-7,8-dihydropyrido[2,3-d]pyrimidine-6-carboxamido)acetic acid]
- IC50: 2.9 nM

SMILES: Cn1c(=O)c(C(=O)NCC(=O)O)c(O)c2cnc(-c3cccc4ccccc34)nc21 [Example 46, 2-(5-hydroxy-8-methyl-2-(naphthalen-1-yl)-7-oxo-7,8-dihydropyrido[2,3-d]pyrimidine-6-carboxamido)acetic acid]
- IC50: 2.3 nM

SMILES: Cn1c(=O)c(C(=O)NCC(=O)O)c(O)c2cc(C3=CCCC3)nnc21 [Example 4, 2-(3-cyclopentenyl-5-hydroxy-8-methyl-7-oxo-7,8-dihydropyrido[2,3-c]pyridazine-6-carboxamido)acetic acid]
- IC50: 17 nM

SMILES: COc1ccc(-c2ncc3c(O)c(C(=O)NCC(=O)O)c(=O)n(C)c3n2)cc1 [Example 33, 2-(5-hydroxy-2-(4-methoxyphenyl)-8-methyl-7-oxo-7,8-dihydropyrido[2,3-d]pyrimidine-6-carboxamido)acetic acid]
- IC50: 6.4 nM

SMILES: CC(C)Oc1ccc(-c2cc3c(O)c(C(=O)NCC(=O)O)c(=O)n(C)c3nn2)cc1 [Example 8, 2-(5-hydroxy-3-(4-isopropoxyphenyl)-8-methyl-7-oxo-7,8-dihydropyrido[2,3-c]pyridazine-6-carboxamido)acetic acid]
- IC50: 21 nM

SMILES: Cn1c(=O)c(C(=O)NCC(=O)O)c(O)c2cnc(-c3cccc(Cl)c3)nc21 [Example 43, 2-(2-(3-chlorophenyl)-5-hydroxy-8-methyl-7-oxo-7,8-dihydropyrido[2,3-d]pyrimidine-6-carboxamido)acetic acid]
- IC50: 7.9 nM

SMILES: Cn1c(=O)c(C(=O)NCC(=O)O)c(O)c2ncc(-c3ccccc3)nc21 [Example 18, 2-(8-hydroxy-5-methyl-6-oxo-3-phenyl-5,6-dihydropyrido[3,2-b]pyrazine-7-carboxamido)acetic acid]
- IC50: 8.8 nM

SMILES: Cn1c(-c2ncc3c(O)c(C(=O)NCC(=O)O)c(=O)n(C)c3n2)cc2ccccc21 [Example 57, 2-(5-hydroxy-8-methyl-2-(1-methyl-1H-indol-2-yl)-7-oxo-7,8-dihydropyrido[2,3-d]pyrimidine-6-carboxamido)acetic acid]
- IC50: 14 nM

SMILES: Cn1c(=O)c(C(=O)NCC(=O)O)c(O)c2cnc(-c3ccc4ccccc4c3)nc21 [Example 41, 2-(5-hydroxy-8-methyl-2-(naphthalen-2-yl)-7-oxo-7,8-dihydropyrido[2,3-d]pyrimidine-6-carboxamido)acetic acid]
- IC50: 9.4 nM

SMILES: Cn1c(=O)c(C(=O)NCC(=O)O)c(O)c2cnc(C(F)(F)F)nc21 [Example 14, 2-(5-hydroxy-8-methyl-7-oxo-2-(trifluoromethyl)-7,8-dihydropyrido[2,3-d]pyrimidine-6-carboxamido)acetic acid]
- IC50: 6.9 nM

SMILES: Cn1c(=O)c(C(=O)NCC(=O)O)c(O)c2cnc(-c3ccccc3F)nc21 [Example 26, 2-(2-(2-fluorophenyl)-5-hydroxy-8-methyl-7-oxo-7,8-dihydropyrido[2,3-d]pyrimidine-6-carboxamido)acetic acid]
- IC50: 1.5 nM

SMILES: Cn1c(=O)c(C(=O)NCC(=O)O)c(O)c2cnc(-c3ccoc3)nc21 [Example 30, 2-(2-(furan-3-yl)-5-hydroxy-8-methyl-7-oxo-7,8-dihydropyrido[2,3-d]pyrimidine-6-carboxamido)acetic acid]
- IC50: 5.3 nM

SMILES: CCC1CCC(C)N(c2ncc3c(O)c(C(=O)NCC(=O)O)c(=O)n(C)c3n2)C1 (centres unmarked) [Example 20, 2-(2-(5-ethyl-2-methylpiperidin-1-yl)-5-hydroxy-8-methyl-7-oxo-7,8-dihydropyrido[2,3-d]pyrimidine-6-carboxamido)acetic acid]
- IC50: 175 nM

SMILES: Cn1c(=O)c(C(=O)NCC(=O)O)c(O)c2cnc(-c3ccc4occc4c3)nc21 [Example 48, 2-(2-(benzofuran-5-yl)-5-hydroxy-8-methyl-7-oxo-7,8-dihydropyrido[2,3-d]pyrimidine-6-carboxamido)acetic acid]
- IC50: 7.1 nM

SMILES: Cn1c(=O)c(C(=O)NCC(=O)O)c(O)c2cnc(-c3cccc4ncccc34)nc21 [Example 35, 2-(5-hydroxy-8-methyl-7-oxo-2-(quinolin-5-yl)-7,8-dihydropyrido[2,3-d]pyrimidine-6-carboxamido)acetic acid]
- IC50: 2.4 nM

SMILES: Cn1c(=O)c(C(=O)NCC(=O)O)c(O)c2cnc(-c3cccc(N4CCOCC4)c3)nc21 [Example 53, 2-(5-hydroxy-8-methyl-2-(3-morpholinophenyl)-7-oxo-7,8-dihydropyrido[2,3-d]pyrimidine-6-carboxamido)acetic acid]
- IC50: 5 nM

SMILES: Cn1c(=O)c(C(=O)NCC(=O)O)c(O)c2cnc(N3CCOCC3)nc21 [Example 13, 2-(5-hydroxy-8-methyl-2-morpholino-7-oxo-7,8-dihydropyrido[2,3-d]pyrimidine-6-carboxamido)acetic acid]
- IC50: 240 nM

SMILES: Cn1c(=O)c(C(=O)NCC(=O)O)c(O)c2cnc(C3CC3)nc21 [Example 24, 2-(2-cyclopropyl-5-hydroxy-8-methyl-7-oxo-7,8-dihydropyrido[2,3-d]pyrimidine-6-carboxamido)acetic acid]
- IC50: 3.9 nM

SMILES: Cn1c(=O)c(C(=O)NCC(=O)O)c(O)c2cc(C3CCCC3)nnc21 [Example 5, 2-(3-cyclopentyl-5-hydroxy-8-methyl-7-oxo-7,8-dihydropyrido[2,3-c]pyridazine-6-carboxamido)acetic acid]
- IC50: 8.8 nM

SMILES: Cn1c(=O)c(C(=O)NCC(=O)O)c(O)c2cnc(-c3ccccc3N3CCOCC3)nc21 [Example 28, 2-(5-hydroxy-8-methyl-2-(2-morpholinophenyl)-7-oxo-7,8-dihydropyrido[2,3-d]pyrimidine-6-carboxamido)acetic acid]
- IC50: 2.9 nM

SMILES: Cn1c(=O)c(C(=O)NCC(=O)O)c(O)c2cnc(C#CC3CC3)nc21 [Example 23, 2-(2-(2-cyclopropylethynyl)-5-hydroxy-8-methyl-7-oxo-7,8-dihydropyrido[2,3-d]pyrimidine-6-carboxamido)acetic acid]
- IC50: 12 nM

SMILES: Cc1ccc(-c2ncc3c(O)c(C(=O)NCC(=O)O)c(=O)n(C)c3n2)cc1 [Example 47, 2-(5-hydroxy-8-methyl-7-oxo-2-p-tolyl-7,8-dihydropyrido[2,3-d]pyrimidine-6-carboxamido)acetic acid]
- IC50: 6.7 nM

SMILES: Cn1c(=O)c(C(=O)NCC(=O)O)c(O)c2cnc(-c3cccnc3)nc21 [Example 55, 2-(5-hydroxy-8-methyl-7-oxo-2-(pyridin-3-yl)-7,8-dihydropyrido[2,3-d]pyrimidine-6-carboxamido)acetic acid]
- IC50: 4.45 nM
